Test results from publication PMC8929364, “Metopimazine is primarily metabolized by a liver amidase in humans” (Pharmacology Research & Perspectives, 2021).

Target: T1, rhFMO3 (Homo sapiens, UniProt P31513)
T1 construct: purchased Corning Inc
T1 sequence (P31513 1-532): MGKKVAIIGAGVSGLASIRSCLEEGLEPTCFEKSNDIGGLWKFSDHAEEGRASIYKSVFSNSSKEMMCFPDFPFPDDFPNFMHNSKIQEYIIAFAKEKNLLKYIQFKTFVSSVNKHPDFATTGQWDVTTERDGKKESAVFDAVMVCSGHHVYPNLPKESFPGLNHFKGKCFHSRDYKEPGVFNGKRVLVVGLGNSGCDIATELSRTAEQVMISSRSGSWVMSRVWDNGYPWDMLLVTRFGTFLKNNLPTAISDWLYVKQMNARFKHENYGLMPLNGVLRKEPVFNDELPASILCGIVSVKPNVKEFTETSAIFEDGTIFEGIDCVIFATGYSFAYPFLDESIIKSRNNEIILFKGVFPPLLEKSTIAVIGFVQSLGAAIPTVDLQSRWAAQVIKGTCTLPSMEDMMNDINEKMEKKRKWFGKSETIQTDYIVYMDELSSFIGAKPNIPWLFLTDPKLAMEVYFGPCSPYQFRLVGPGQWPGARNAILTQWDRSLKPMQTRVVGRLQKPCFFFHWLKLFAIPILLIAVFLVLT
Assay: Incubation of MPZ with recombinant FMO: FMO3
Format: in vitro ADME
Settings: 1 µM MPZ, pH 8.4
Description: MPZ at 1.0 µM was incubated in triplicate with individual recombinant FMO (Supersomes™ for FMO 1, FMO3, and FMO5). Protein concentrations for all rFMO isoforms were 0.05 mg/ml. A positive control (benzydamine, 100 µM) was incubated for 20 min. The reaction mixture containing MPZ or FMO substrate, KPi buffer (pH 8.4), and FMO Supersomes™ was pre‐incubated at 37°C for 3–5 min. All other procedures were the same as described previously. The negative control reactions were incubated absence of NADPH.

CS(=O)(=O)c1ccc2c(c1)N(CCCN1CCC(C(N)=O)CC1)c1ccccc1S2 [MPZ, metopimazine]
metabolism by rhFMO3: did not metabolize MPZ
